Data as given in ChEMBL document CHEMBL3046627, “Synthesis and in vitro study of antibacterial, antifungal activities of some novel bisquinolines” (2013).
Activity calls are given as the source filed them. No cut-off for these calls is given here.

The compounds below were run on Bacillus pumilus (assay: Antibacterial activity against Bacillus pumilus 11778 assessed as growth inhibition after 24 hr by agar dilution method).
Format: functional

Compound	MIC
GENTAMICIN	10 µg/mL
c1cnc2c(OCc3nc4ccccc4nc3COc3cccc4cccnc34)cccc2c1	inactive
c1cc(COc2cccc3cccnc23)cc(COc2cccc3cccnc23)c1	inactive
Cc1ccc2cccc(OCc3cccc(COc4cccc5ccc(C)nc45)c3)c2n1	inactive
Clc1ccc(OCc2ccc(COc3ccc(Cl)c4cccnc34)cc2)c2ncccc12	inactive
Cc1ccc2cccc(OCc3ccc(COc4cccc5ccc(C)nc45)cc3)c2n1	inactive

What follows are compounds tested on Klebsiella pneumoniae (assay: Antibacterial activity against Klebsiella pneumoniae J/I/4 assessed as growth inhibition at MIC after 24 hr by agar dilution method).
Format: functional

Compound	inhibition zone (IZ)
GENTAMICIN	9 mm

The compounds below were run on Cryptococcus neoformans (assay: Antifungal activity against Cryptococcus neoformans assessed as growth inhibition at MIC after 96 hr by agar dilution method).
Format: functional

Compound	diameter of the inhibition zone (DIZ)
c1cc(COc2cccc3cccnc23)cc(COc2cccc3cccnc23)c1	inactive
Cc1ccc2cccc(OCc3cccc(COc4cccc5ccc(C)nc45)c3)c2n1	inactive

What follows are compounds tested on Candida tropicalis (assay: Antifungal activity against Candida tropicalis assessed as growth inhibition at MIC after 96 hr by agar dilution method).
Format: functional

Compound	diameter of the inhibition zone (DIZ)
c1cc(COc2cccc3cccnc23)cc(COc2cccc3cccnc23)c1	inactive
Cc1ccc2cccc(OCc3cccc(COc4cccc5ccc(C)nc45)c3)c2n1	inactive

These compounds were tested on Candida albicans (assay: Antifungal activity against Candida albicans assessed as growth inhibition at MIC after 96 hr by agar dilution method).
Format: functional

Compound	diameter of the inhibition zone (DIZ)
c1cc(COc2cccc3cccnc23)cc(COc2cccc3cccnc23)c1	inactive
Cc1ccc2cccc(OCc3cccc(COc4cccc5ccc(C)nc45)c3)c2n1	inactive

What follows are compounds tested on Candida albicans (assay: Antifungal activity against Candida albicans assessed as growth inhibition after 96 hr by agar dilution method).
Format: functional

Compound	MIC
c1cnc2c(OCc3nc4ccccc4nc3COc3cccc4cccnc34)cccc2c1	inactive
c1cc(COc2cccc3cccnc23)cc(COc2cccc3cccnc23)c1	inactive
Cc1ccc2cccc(OCc3cccc(COc4cccc5ccc(C)nc45)c3)c2n1	inactive
Clc1ccc(OCc2ccc(COc3ccc(Cl)c4cccnc34)cc2)c2ncccc12	inactive
Cc1ccc2cccc(OCc3ccc(COc4cccc5ccc(C)nc45)cc3)c2n1	inactive

These compounds were tested on Vibrio cholerae (assay: Antibacterial activity against Vibrio cholerae 759 assessed as growth inhibition at MIC after 24 hr by agar dilution method).
Format: functional

Compound	inhibition zone (IZ)
GENTAMICIN	11 mm

These compounds were tested on Vibrio cholerae (assay: Antibacterial activity against Vibrio cholerae 759 assessed as growth inhibition after 24 hr by agar dilution method).
Format: functional

Compound	MIC
GENTAMICIN	2 µg/mL
c1cnc2c(OCc3nc4ccccc4nc3COc3cccc4cccnc34)cccc2c1	inactive
c1cc(COc2cccc3cccnc23)cc(COc2cccc3cccnc23)c1	inactive
Cc1ccc2cccc(OCc3cccc(COc4cccc5ccc(C)nc45)c3)c2n1	inactive
Clc1ccc(OCc2ccc(COc3ccc(Cl)c4cccnc34)cc2)c2ncccc12	inactive
Cc1ccc2cccc(OCc3ccc(COc4cccc5ccc(C)nc45)cc3)c2n1	inactive

Each compound was assayed on Escherichia coli (assay: Antibacterial activity against Escherichia coli 319 assessed as growth inhibition after 24 hr by agar dilution method).
Format: functional

Compound	MIC
c1cnc2c(OCc3nc4ccccc4nc3COc3cccc4cccnc34)cccc2c1	inactive
c1cc(COc2cccc3cccnc23)cc(COc2cccc3cccnc23)c1	inactive
Cc1ccc2cccc(OCc3cccc(COc4cccc5ccc(C)nc45)c3)c2n1	inactive
Clc1ccc(OCc2ccc(COc3ccc(Cl)c4cccnc34)cc2)c2ncccc12	inactive
Cc1ccc2cccc(OCc3ccc(COc4cccc5ccc(C)nc45)cc3)c2n1	inactive

These compounds were tested on Bacillus pumilus (assay: Antibacterial activity against Bacillus pumilus 11778 assessed as growth inhibition at MIC after 24 hr by agar dilution method).
Format: functional

Compound	inhibition zone (IZ)
GENTAMICIN	7 mm

Each compound was assayed on Candida tropicalis (assay: Antifungal activity against Candida tropicalis assessed as growth inhibition after 96 hr by agar dilution method).
Format: functional

Compound	MIC
c1cnc2c(OCc3nc4ccccc4nc3COc3cccc4cccnc34)cccc2c1	inactive
c1cc(COc2cccc3cccnc23)cc(COc2cccc3cccnc23)c1	inactive
Cc1ccc2cccc(OCc3cccc(COc4cccc5ccc(C)nc45)c3)c2n1	inactive
Clc1ccc(OCc2ccc(COc3ccc(Cl)c4cccnc34)cc2)c2ncccc12	inactive
Cc1ccc2cccc(OCc3ccc(COc4cccc5ccc(C)nc45)cc3)c2n1	inactive

These compounds were tested on Micrococcus luteus (assay: Antibacterial activity against Micrococcus luteus ATCC 9341 assessed as growth inhibition at MIC after 24 hr by agar dilution method).
Format: functional

Compound	inhibition zone (IZ)
GENTAMICIN	7 mm

The compounds below were run on Shigella dysenteriae (assay: Antibacterial activity against Shigella dysenteriae 15 assessed as growth inhibition at MIC after 24 hr by agar dilution method).
Format: functional

Compound	inhibition zone (IZ)
GENTAMICIN	12 mm

Each compound was assayed on Cryptococcus neoformans (assay: Antifungal activity against Cryptococcus neoformans assessed as growth inhibition after 96 hr by agar dilution method).
Format: functional

Compound	MIC
c1cnc2c(OCc3nc4ccccc4nc3COc3cccc4cccnc34)cccc2c1	inactive
c1cc(COc2cccc3cccnc23)cc(COc2cccc3cccnc23)c1	inactive
Cc1ccc2cccc(OCc3cccc(COc4cccc5ccc(C)nc45)c3)c2n1	inactive
Clc1ccc(OCc2ccc(COc3ccc(Cl)c4cccnc34)cc2)c2ncccc12	inactive
Cc1ccc2cccc(OCc3ccc(COc4cccc5ccc(C)nc45)cc3)c2n1	inactive

Each compound was assayed on Pseudomonas aeruginosa (assay: Antibacterial activity against Pseudomonas aeruginosa 71 assessed as growth inhibition after 24 hr by agar dilution method).
Format: functional

Compound	MIC
GENTAMICIN	4 µg/mL
c1cnc2c(OCc3nc4ccccc4nc3COc3cccc4cccnc34)cccc2c1	inactive
c1cc(COc2cccc3cccnc23)cc(COc2cccc3cccnc23)c1	inactive
Cc1ccc2cccc(OCc3cccc(COc4cccc5ccc(C)nc45)c3)c2n1	inactive
Clc1ccc(OCc2ccc(COc3ccc(Cl)c4cccnc34)cc2)c2ncccc12	inactive
Cc1ccc2cccc(OCc3ccc(COc4cccc5ccc(C)nc45)cc3)c2n1	inactive

These compounds were tested on Klebsiella pneumoniae (assay: Antibacterial activity against Klebsiella pneumoniae J/I/4 assessed as growth inhibition after 24 hr by agar dilution method).
Format: functional

Compound	MIC
GENTAMICIN	0.25 µg/mL
c1cnc2c(OCc3nc4ccccc4nc3COc3cccc4cccnc34)cccc2c1	inactive
c1cc(COc2cccc3cccnc23)cc(COc2cccc3cccnc23)c1	inactive
Cc1ccc2cccc(OCc3cccc(COc4cccc5ccc(C)nc45)c3)c2n1	inactive
Clc1ccc(OCc2ccc(COc3ccc(Cl)c4cccnc34)cc2)c2ncccc12	inactive
Cc1ccc2cccc(OCc3ccc(COc4cccc5ccc(C)nc45)cc3)c2n1	inactive

Each compound was assayed on Aspergillus niger (assay: Antifungal activity against Aspergillus niger assessed as growth inhibition after 96 hr by agar dilution method).
Format: functional

Compound	MIC
c1cnc2c(OCc3nc4ccccc4nc3COc3cccc4cccnc34)cccc2c1	inactive
c1cc(COc2cccc3cccnc23)cc(COc2cccc3cccnc23)c1	inactive
Cc1ccc2cccc(OCc3cccc(COc4cccc5ccc(C)nc45)c3)c2n1	inactive
Clc1ccc(OCc2ccc(COc3ccc(Cl)c4cccnc34)cc2)c2ncccc12	inactive
Cc1ccc2cccc(OCc3ccc(COc4cccc5ccc(C)nc45)cc3)c2n1	inactive

What follows are compounds tested on Shigella dysenteriae (assay: Antibacterial activity against Shigella dysenteriae 15 assessed as growth inhibition after 24 hr by agar dilution method).
Format: functional

Compound	MIC
GENTAMICIN	2 µg/mL
c1cnc2c(OCc3nc4ccccc4nc3COc3cccc4cccnc34)cccc2c1	inactive
c1cc(COc2cccc3cccnc23)cc(COc2cccc3cccnc23)c1	inactive
Cc1ccc2cccc(OCc3cccc(COc4cccc5ccc(C)nc45)c3)c2n1	inactive
Clc1ccc(OCc2ccc(COc3ccc(Cl)c4cccnc34)cc2)c2ncccc12	inactive
Cc1ccc2cccc(OCc3ccc(COc4cccc5ccc(C)nc45)cc3)c2n1	inactive

What follows are compounds tested on Aspergillus niger (assay: Antifungal activity against Aspergillus niger assessed as growth inhibition at MIC after 96 hr by agar dilution method).
Format: functional

Compound	diameter of the inhibition zone (DIZ)
c1cc(COc2cccc3cccnc23)cc(COc2cccc3cccnc23)c1	inactive
Cc1ccc2cccc(OCc3cccc(COc4cccc5ccc(C)nc45)c3)c2n1	inactive

The compounds below were run on Staphylococcus aureus (assay: Antibacterial activity against Staphylococcus aureus 29737 assessed as growth inhibition after 24 hr by agar dilution method).
Format: functional

Compound	MIC
GENTAMICIN	1 µg/mL
c1cnc2c(OCc3nc4ccccc4nc3COc3cccc4cccnc34)cccc2c1	inactive
c1cc(COc2cccc3cccnc23)cc(COc2cccc3cccnc23)c1	inactive
Cc1ccc2cccc(OCc3cccc(COc4cccc5ccc(C)nc45)c3)c2n1	inactive
Clc1ccc(OCc2ccc(COc3ccc(Cl)c4cccnc34)cc2)c2ncccc12	inactive
Cc1ccc2cccc(OCc3ccc(COc4cccc5ccc(C)nc45)cc3)c2n1	inactive

What follows are compounds tested on Micrococcus luteus (assay: Antibacterial activity against Micrococcus luteus ATCC 9341 assessed as growth inhibition after 24 hr by agar dilution method).
Format: functional

Compound	MIC
GENTAMICIN	24 µg/mL
c1cnc2c(OCc3nc4ccccc4nc3COc3cccc4cccnc34)cccc2c1	inactive
c1cc(COc2cccc3cccnc23)cc(COc2cccc3cccnc23)c1	inactive
Cc1ccc2cccc(OCc3cccc(COc4cccc5ccc(C)nc45)c3)c2n1	inactive
Clc1ccc(OCc2ccc(COc3ccc(Cl)c4cccnc34)cc2)c2ncccc12	inactive
Cc1ccc2cccc(OCc3ccc(COc4cccc5ccc(C)nc45)cc3)c2n1	inactive
